The values that follow come from PMC5114727, “Biological characterization of chemically diverse compounds targeting the Plasmodium falciparum coenzyme A synthesis pathway” (Parasites & Vectors, 2016).

As a reminder, the IC50 is the concentration that gives 50% inhibition.

Data set [1] relates to P. falciparum early stage gametocytes (PfEG, stage I-III). Description: Chemical rescue with CoA pathway intermediates, early stage gametocytes. The format is cell-based, Plasmodium falciparum. The note with it: for Percent rescue ± SEM by CoA, PfEG: CoA 1.6 mM; for Percent rescue ± SEM by CoA, PfEG / Percent rescue ± SEM by pantethine, PfEG / Percent rescue ± SEM by pantothenate, PfEG: inhibitor at IC80; for Percent rescue ± SEM by pantethine, PfEG: pantethine 10 mM; for Percent rescue ± SEM by pantothenate, PfEG: pantothenate 625 μM. As to the method:
(§1) Pantothenate is the first substrate of the pathway (Fig. 1) and its addition was intended to rescue the action of possible competitive inhibitors of the first enzyme, PanK. […] It is not known, whether P. falciparum is capable of pantetheine phosphorylation for utilization in CoA synthesis. […] Finally, the rescue ability of dP-CoA, the final substrate of CoA synthesis, was tested. […] Inhibitors competing with dP-CoA for DPCK binding were expected to be displaced, thereby rescuing parasite survival, by dP-CoA supplementation in a concentration dependent manner.
(§2) An imaging based assay was utilised to assess the chemical rescue on asexual stages of P. falciparum as described previously. All the pathway intermediates were purchased from Sigma. CoA and dP-CoA were dissolved in sterile distilled water to obtain a 20 mM stock solution, which was then aliquoted and stored at -20 °C until use. […] Each pathway intermediate was tested on the parasites at a range of concentrations to assess potential toxicity. […] On early stage P. falciparum gametocytes the same concentrations as for CoA were tested for dP-CoA; against asexual blood stage P. falciparum, late stage gametocytes and Trypanosoma b. brucei five dP-CoA concentrations were tested (2 mM, 1.5 mM, 1 mM, 0.75 mM and 0.5 mM).
(§3) The same concentration ranges of the CoA pathway intermediates were supplemented to parasites treated with the experimental compounds. […] The negative control used in each assay was 0.4% DMSO, whilst the positive control was 2 μM artemisinin for asexual P. falciparum blood stages and 5 μM puromycin for all gametocyte stages and T. b. brucei. The percentage growth of the respective parasites following compound treatment was determined using Microsoft ® Excel 2010, and compared with their controls. All rescue assays were performed as two independent experiments each in duplicate point.

Data set [2] has as its system panel of human cancer cell lines (MCF7, MDA-MB-231, PC-3). Description: Cytotoxicity across the panel of cell lines. The format is cell-based. To be noted: for cytotoxicity against any of the cell lines investigated (in words): up to the highest tested concentration of 40 μM; for IC50: MCF7, MDA-MB-231, PC-3, read-out: IC50 range against the cancer cell lines. The text has this: (§4) An initial indication of compound selectivity over human cells had previously been obtained through comparison of the compounds’ IC50 values against P. falciparum asexual stages and HEK293 [22]. In the present study, the selectivity investigation was extended to a small panel of human cancer cell lines, namely the estrogen receptor (ER)-positive breast cancer cell line MCF7, the ER-negative MDA-MB-231, as well as the human prostate cancer line, PC-3. Additionally, the cytotoxic effects on mouse embryonic fibroblast cell line 3T3, which serves as the host cell for T. cruzi in our image-based amastigote assay, were investigated.
(§5) Cytotoxicity of the compounds was assessed against a panel of human cancer cell lines, namely the estrogen receptor (ER)-positive breast cancer cell line MCF7, the ER-negative MDA-MB-231 and the prostate cancer line PC-3. All the cell lines were purchased from ATCC and maintained as previously described. Two biological replicates consisting of two technical replicates each were performed to generate concentration response curves (CRC) with a final highest concentration of 40 μM. A resazurin-based assay was utilized to determine cell viability as described earlier. Additionally, the cytotoxic effects on the mouse embryonic fibroblast cell line 3T3 were assessed as part of the Trypanosoma cruzi amastigote image-based assay as outlined in [35].

For another data set, the system named is T. cruzi trypomastigotes. Description: T. cruzi trypomastigote PrestoBlue assay. In kind it is cell-based, Trypanosoma cruzi. The note with it: for IC50: highest concentration 40 μM, read-out: T. cruzi trypomastigote IC50 ± SEM. As to the method: Compound activity against T. cruzi trypomastigotes was assessed in two independent experiments, without technical repeats, at a final highest compound concentration of 40 μM in concentration-response PrestoBlue assay, as previously described.

The test system of another data set is MCF7 cells. Description: Resazurin cytotoxicity assay, MCF7. To be noted: highest concentration 40 μM; bound = highest concentration with < 50 % inhibition; read-out: MCF7 cytotoxicity IC50 ± SEM. The format is cell-based, human.
From the text: as §4, §5

The target of data set [3] is early stage gametocytes (stage I to IIb/III) of P. falciparum line NF54^Pfs16. As to the kind of experiment: Gametocyte luciferase assay, early stage. In kind it is cell-based, Plasmodium falciparum. The text has this: (§6) To investigate a potential role of CoA biosynthesis for host to vector transmission of the malaria parasite, we investigated the activity of our compounds on P. falciparum gametocytes, the sexual stages of P. falciparum, essential for malaria transmission. […] Parasite stage-specificity and gametocytocidal activity of the compounds was therefore investigated, utilizing a luciferase-based approach on early stage (development from stage I to IIb/III [30]) and late stage (IV to V [51]) gametocytes.
(§7) Induction of P. falciparum gametocyte differentiation and gametocyte culturing were performed as previously described. Compound activity against early stage gametocytes (covering the development from stage I to IIb/III) and late stage gametocytes (stage IV to V) of the recombinant P. falciparum line NF54^Pfs16 was assessed in concentration-response assays, in two experimental replicates consisting of two technical repeats each, at a highest concentration of 40 μM, as described earlier.

In another data set the test system is HEK293 cells. To be noted: as previously reported; read-out: HEK293 cytotoxicity IC50 ± SEM; cited from earlier work.
Data set [4] concerns the target late stage gametocytes (stage IV to V) of P. falciparum line NF54^Pfs16. As to the kind of experiment: Gametocyte luciferase assay, late stage. In kind it is cell-based, Plasmodium falciparum.
From the text: as §6, §7

In data set [5] the test system is P. falciparum asexual blood stages (PfAS). As to the kind of experiment: Chemical rescue with CoA pathway intermediates, asexual stages. The format is cell-based, Plasmodium falciparum. To be noted: inhibitor at IC80; for Percent rescue ± SEM by pantethine, PfAS: pantethine 125 μM; for Percent rescue ± SEM by pantothenate, PfAS: pantothenate 300 μM; for Percent rescue ± SEM by CoA, PfAS: CoA 0.8 mM; for Percent rescue ± SEM by dephospho CoA, PfAS: dP-CoA 0.8 mM. As to the method:
as §1, §2
as §3, with “compounds. The inhibitors were used at their respective final assay concentration of IC80 (as determined previously in the corresponding P. falciparum development stage or T. b. brucei assay).” for “compounds.”

The test system of data set [6] is T. b. brucei trypomastigote. Description: T. b. brucei resazurin (Alamar Blue) viability assay. The format is cell-based, Trypanosoma brucei brucei. As to the method:
Compound activity against two members of another clinically important group of parasites, the kinetoplastids T. cruzi and T. b. brucei was determined. The sensitive high content imaging assay used to determine compound activity against T. cruzi assesses the intracellular amastigote life form of the parasite in the 3T3 host cell. […] The T. b. brucei assay employs the REDOX indicator Alamar Blue to assess viability, which was developed into a 384-well assay format.
Compound activity against T. b. brucei was assessed in a resazurin-based viability assay in concentration-response assays, without technical repeats, in two experimental replicates at a highest concentration of 40 μM, as previously described.
(In general: The colour change of resazurin is a common sign of viable cells or microbes.)

The mark [7] stands for this setting: 40 µM, given if an IC50 could not be calculated.
Where [8] appears, read: read-out: Early stage gametocyte IC50.
Setting [9] is: read-out: Late stage gametocyte IC50.
Setting [10] is: highest concentration 40 μM, read-out: Early stage gametocyte IC50 ± SEM.
[11] abbreviates: highest concentration 40 μM, read-out: Late stage gametocyte IC50 ± SEM.

Each structure is given as a SMILES string. Several values for one entry are separate records, joined by “and”; a condition that tells them apart may be missing. Equal values may be shown once. Read-outs that look alike come from different tables or passages of the source.

`Cc1csc(Sc2ncnc3sccc23)n1` [Amb180780]: in [1], the “Percent rescue ± SEM by CoA, PfEG” value was 111.3 ± 3.2% and ~100%; the “Percent rescue ± SEM by pantethine, PfEG” value was 94.2 ± 1.8% and ~100%; the “Percent rescue ± SEM by pantothenate, PfEG” value is recorded as “No”. For the same molecule, the “cytotoxicity against any of the cell lines investigated (in words)” value in [2] is reported as “no or only negligible cytotoxicity”. Besides, the “T. cruzi trypomastigote percent inhibition at the highest concentration tested” value in the data set on T. cruzi trypomastigotes (setting [7]) was 100%. The IC50 in the data set with MCF7 cells was over 40000 nM. For the same molecule, the IC50 in data set [3] (setting [8]) amounted to 60 nM. In addition, in the data set on HEK293 cells, the IC50 was about 40000 nM. Besides, in data set [4] (setting [9]), the IC50 amounted to 70 nM. Further, in data set [5], the “Percent rescue ± SEM by pantethine, PfAS” value was 76.2 ± 7.7% and 76 ± 8%; the “Percent rescue ± SEM by pantothenate, PfAS” value was “No and not by pantothenate”. For the same molecule, the “T. b. brucei trypomastigote percent inhibition at the highest concentration tested” value in data set [6] (setting [7]) is 100%.

On to `CC(=O)c1ccc2c3c(onc13)-c1ccccc1C2=O` [Amb3377585], for which the “Percent rescue ± SEM by pantethine, PfEG” value in data set [1] is on record as “No”. Besides, the “Percent rescue ± SEM by pantothenate, PfEG” value in data set [1] was “No”. Moreover, the IC50 in data set [2] is 5000 to 9000 nM; in the data set with T. cruzi trypomastigotes, 740 nM and 744 nM; with MCF7 cells, 9100 ± 620 nM; in [3] (setting [10]), 250 ± 10 nM; with HEK293 cells, 2750 ± 180 nM; in data set [4] (setting [11]), 6220 ± 2500 nM. The IC50 in data set [6] (read-out: T. b. brucei IC50) turned out to be 200 nM. Moreover, in [5], the “Percent rescue ± SEM by CoA, PfAS” value is reported as 89.3 ± 2.6%. For the same molecule, the “Percent rescue ± SEM by dephospho CoA, PfAS” value in data set [5] was 38.7 ± 4.7%. For the same molecule, the “Percent rescue ± SEM by pantethine, PfAS” value in data set [5] is “No”. Besides, in data set [5], the “Percent rescue ± SEM by pantothenate, PfAS” value is reported as “No”.

For `CC(=O)C1=C(c2ccccc2)C(=O)c2ccccc2C1=O` [Amb4317088], the IC50 is 870 to 4600 nM in data set [2]; 390 nM and 392 nM with T. cruzi trypomastigotes; 4600 ± 160 nM in the data set with MCF7 cells; 2880 ± 180 nM in data set [3] (setting [10]); 2330 ± 120 nM in the data set with HEK293 cells; 2240 nM and 2200 nM in data set [4] (setting [11]). Further, in data set [6] (read-out: T. b. brucei IC50), the IC50 worked out at 160 nM. For the same molecule, the “Percent rescue ± SEM by CoA, PfAS” value in data set [5] was determined as 84.5 ± 7.7%. Also, the “Percent rescue ± SEM by dephospho CoA, PfAS” value in data set [5] is reported as 77.6 ± 5.5%. In addition, the “Percent rescue ± SEM by pantethine, PfAS” value in [5] is “No”. Besides, the “Percent rescue ± SEM by pantothenate, PfAS” value in data set [5] is “No”.

Turning to `CC1=CC(=O)C(C(C)C)=C/C1=N/OS(=O)(=O)c1ccccc1` [STK 740987], in data set [1], the “Percent rescue ± SEM by CoA, PfEG” value was 24.1 ±0.7% and 24 ± 1%; the “Percent rescue ± SEM by pantethine, PfEG” value was “No and not rescued by the other intermediates”; the “Percent rescue ± SEM by pantothenate, PfEG” value was “No and not rescued by the other intermediates”. For the same molecule, in [1] (compound alone in rescue experiment), the “activity on early stage gametocytes at previously determined IC80 value” was over 95%. Moreover, in [1] (inhibitor at IC50), the “Percent rescue by CoA, PfEG, at the compound's IC50” value is 61.5 ± 1.0% and 62 ± 1%; the “Percent rescue by dephospho CoA, PfEG, at the compound's IC50” value was 46.2 ± 2.4% and 46 ± 2%; the “Rescue by pantethine, PfEG, at the compound's IC50 (in words)” value is “unaffected”; the “Rescue by pantothenate, PfEG, at the compound's IC50 (in words)” value is reported as “unaffected”. The “cytotoxicity against any of the cell lines investigated (in words)” value in data set [2] is on record as “no or only negligible cytotoxicity”. The IC50 with T. cruzi trypomastigotes was 680 nM and 682 nM. The IC50 with MCF7 cells was over 40000 nM. Moreover, the IC50 in [3] (setting [8]) came out at 430 nM. In addition, the IC50 in the data set on HEK293 cells is over 40000 nM. The IC50 in data set [4] (setting [9]) came out at 460 nM. Further, in data set [5], the “Percent rescue ± SEM by CoA, PfAS” value was 103.9 ± 3.4%; the “Percent rescue ± SEM by dephospho CoA, PfAS” value is on record as 88.9 ± 6.7%; the “Percent rescue ± SEM by pantethine, PfAS” value is “No”; the “Percent rescue ± SEM by pantothenate, PfAS” value is given as “No”. In data set [6] (highest concentration 40 μM, read-out: T. b. brucei trypomastigote IC50 ± SEM), the IC50 was 1020 nM and 1000 nM.
